Measured values from ChEMBL document CHEMBL4196079, “Molecular interaction of novel benzothiazolyl triazolium analogues with calf thymus DNA and HSA-their biological investigation as potent antimicrobial agents” (Eur J Med Chem, 2018).
Converted amounts (≈) assume the structure as drawn.

How the values were obtained:
Escherichia coli [1] = assay: Antibacterial activity against Escherichia coli JM109 after 24 hrs by NCCLS micro broth dilution method; assay type: functional; details: JM109, 24 h
Pichia norvegensis = assay: Antifungal activity against Candida mycoderma after 24 hrs by NCCLS micro broth dilution method; assay type: functional
Salmonella typhi = assay: Antibacterial activity against Salmonella typhi after 24 hrs by NCCLS micro broth dilution method; assay type: functional, Salmonella enterica subsp. enterica serovar Typhi; details: Salmonella enterica
Bacillus = assay: Antibacterial activity against Bacillus proteus ATCC 13315 after 24 hrs by NCCLS micro broth dilution method; assay type: functional; details: ATCC 13315, 24 h
Saccharomyces cerevisiae = assay: Antifungal activity against Saccharomyces cerevisiae after 24 hrs by NCCLS micro broth dilution method; assay type: functional
Escherichia coli [2] = assay: Antibacterial activity against Escherichia coli DH52 after 24 hrs by NCCLS micro broth dilution method; assay type: functional; details: DH52, 24 h
Micrococcus luteus = assay: Antibacterial activity against Micrococcus luteus ATCC 4698 after 24 hrs by micro broth dilution method; assay type: functional; details: ATCC 4698, 24 h
Pseudomonas aeruginosa = assay: Antibacterial activity against Pseudomonas aeruginosa ATCC 27853 after 24 hrs by NCCLS micro broth dilution method; assay type: functional; details: ATCC 27853, 24 h
Cyberlindnera jadinii = assay: Antifungal activity against Candida utilis after 24 hrs by NCCLS micro broth dilution method; assay type: functional; details: Williopsis jadinii
Bacillus subtilis = assay: Antibacterial activity against Bacillus subtilis ATCC 21216 after 24 hrs by NCCLS micro broth dilution method; assay type: functional; details: ATCC 21216, 24 h
Staphylococcus aureus [3] = assay: Antibacterial activity against Staphylococcus aureus ATCC 25923 after 24 hrs by NCCLS micro broth dilution method; assay type: functional; details: ATCC 25923, 24 h
Shigella dysenteriae = assay: Antibacterial activity against Shigella dysenteriae after 24 hrs by NCCLS micro broth dilution method; assay type: functional
Candida albicans = assay: Antifungal activity against Candida albicans ATCC 76615 after 24 hrs by NCCLS micro broth dilution method; assay type: functional; details: ATCC 76615, 24 h
Aspergillus flavus = assay: Antifungal activity against Aspergillus flavus after 24 hrs by NCCLS micro broth dilution method; assay type: functional
Staphylococcus aureus [4] = assay: Antibacterial activity against methicillin-resistant Staphylococcus aureus N315 after 24 hrs by NCCLS micro broth dilution method; assay type: functional; details: N315, 24 h

| Structure (SMILES) | MIC (Escherichia coli [1]) [µg/mL] | MIC (Pichia norvegensis) [µg/mL] | MIC (Salmonella typhi) [µg/mL] | MIC (Bacillus) [µg/mL] | MIC (Saccharomyces cerevisiae) [µg/mL] | MIC (Escherichia coli [2]) [µg/mL] | MIC (Micrococcus luteus) [µg/mL] | MIC (Pseudomonas aeruginosa) [µg/mL] | MIC (Cyberlindnera jadinii) [µg/mL] | MIC (Bacillus subtilis) [µg/mL] | MIC (Staphylococcus aureus [3]) [µg/mL] | MIC (Shigella dysenteriae) [µg/mL] | MIC (Candida albicans) [µg/mL] | MIC (Aspergillus flavus) [µg/mL] | MIC (Staphylococcus aureus [4]) [µg/mL] |
| --- | --- | --- | --- | --- | --- | --- | --- | --- | --- | --- | --- | --- | --- | --- | --- |
| Fc1cccc(Cn2cc(COCc3c(-c4ccccc4)nc4sc5ccccc5n34)nn2)c1 | 16 (≈ 34.1 µM) | 8 (≈ 17 µM) | 128 (≈ 273 µM) | 64 (≈ 136 µM) | 32 (≈ 68.2 µM) | 32 (≈ 68.2 µM) | 128 (≈ 273 µM) | 128 (≈ 273 µM) | 8 (≈ 17 µM) | 64 (≈ 136 µM) | 128 (≈ 273 µM) | 128 (≈ 273 µM) | 16 (≈ 34.1 µM) | 128 (≈ 273 µM) | 16 (≈ 34.1 µM) |
| CCOc1ccc2c(c1)sc1nc(-c3ccccc3)c(COCc3cn(Cc4ccccc4Cl)nn3)n12 | 128 (≈ 241 µM) | 32 (≈ 60.4 µM) | 16 (≈ 30.2 µM) | 512 (≈ 966 µM) | 64 (≈ 121 µM) | 128 (≈ 241 µM) | 128 (≈ 241 µM) | 64 (≈ 121 µM) | 32 (≈ 60.4 µM) | 128 (≈ 241 µM) | 64 (≈ 121 µM) | 128 (≈ 241 µM) | 8 (≈ 15.1 µM) | 128 (≈ 241 µM) | 128 (≈ 241 µM) |
| CCOc1ccc2c(c1)sc1nc(-c3ccccc3)c(COCc3cn(Cc4cccc(Cl)c4)nn3)n12 | 128 (≈ 241 µM) | 32 (≈ 60.4 µM) | 16 (≈ 30.2 µM) | 512 (≈ 966 µM) | 64 (≈ 121 µM) | 64 (≈ 121 µM) | 128 (≈ 241 µM) | 64 (≈ 121 µM) | 32 (≈ 60.4 µM) | 64 (≈ 121 µM) | 128 (≈ 241 µM) | 64 (≈ 121 µM) | 32 (≈ 60.4 µM) | 128 (≈ 241 µM) | 128 (≈ 241 µM) |
| CCOc1ccc2c(c1)sc1nc(-c3ccccc3)c(COCc3cn(Cc4ccc(Cl)cc4Cl)nn3)n12 | 64 (≈ 113 µM) | 4 (≈ 7.09 µM) | 64 (≈ 113 µM) | 16 (≈ 28.3 µM) | 32 (≈ 56.7 µM) | 64 (≈ 113 µM) | 64 (≈ 113 µM) | 32 (≈ 56.7 µM) | 8 (≈ 14.2 µM) | 32 (≈ 56.7 µM) | 64 (≈ 113 µM) | 32 (≈ 56.7 µM) | 1 (≈ 1.77 µM) | 64 (≈ 113 µM) | 64 (≈ 113 µM) |
| Clc1ccc(Cn2cc(COCc3c(-c4ccccc4)nc4sc5ccccc5n34)nn2)c(Cl)c1 | 64 (≈ 123 µM) | 32 (≈ 61.5 µM) | 64 (≈ 123 µM) | 32 (≈ 61.5 µM) | 64 (≈ 123 µM) | 16 (≈ 30.7 µM) | 32 (≈ 61.5 µM) | 8 (≈ 15.4 µM) | 32 (≈ 61.5 µM) | 64 (≈ 123 µM) | 64 (≈ 123 µM) | 64 (≈ 123 µM) | 32 (≈ 61.5 µM) | 256 (≈ 492 µM) | 32 (≈ 61.5 µM) |
| Clc1cccc(Cn2cc(COCc3c(-c4ccccc4)nc4sc5ccccc5n34)nn2)c1 | 64 (≈ 132 µM) | 16 (≈ 32.9 µM) | 64 (≈ 132 µM) | 64 (≈ 132 µM) | 64 (≈ 132 µM) | 64 (≈ 132 µM) | 32 (≈ 65.8 µM) | 32 (≈ 65.8 µM) | 32 (≈ 65.8 µM) | 32 (≈ 65.8 µM) | 64 (≈ 132 µM) | 32 (≈ 65.8 µM) | 8 (≈ 16.5 µM) | 128 (≈ 263 µM) | 32 (≈ 65.8 µM) |
| CCCCCCn1cc(COCc2c(-c3ccccc3)nc3sc4cc(OCC)ccc4n23)nn1 | 64 (≈ 131 µM) | 16 (≈ 32.7 µM) | 128 (≈ 261 µM) | 128 (≈ 261 µM) | 32 (≈ 65.4 µM) | 128 (≈ 261 µM) | 128 (≈ 261 µM) | 128 (≈ 261 µM) | 16 (≈ 32.7 µM) | 128 (≈ 261 µM) | 128 (≈ 261 µM) | 128 (≈ 261 µM) | 64 (≈ 131 µM) | 128 (≈ 261 µM) | 64 (≈ 131 µM) |
| OC(Cn1cncn1)(Cn1cncn1)c1ccc(F)cc1F [FLUCONAZOLE] | – | 4 (≈ 13.1 µM) | – | – | 16 (≈ 52.2 µM) | – | – | – | 8 (≈ 26.1 µM) | – | – | – | 1 (≈ 3.27 µM) | 256 (≈ 836 µM) | – |
| CCOc1ccc2c(c1)sc1nc(-c3ccccc3)c(COCc3cn(Cc4ccc(Cl)cc4)nn3)n12 | 64 (≈ 121 µM) | 16 (≈ 30.2 µM) | 64 (≈ 121 µM) | 64 (≈ 121 µM) | 64 (≈ 121 µM) | 64 (≈ 121 µM) | 32 (≈ 60.4 µM) | 32 (≈ 60.4 µM) | 64 (≈ 121 µM) | 64 (≈ 121 µM) | 64 (≈ 121 µM) | 64 (≈ 121 µM) | 32 (≈ 60.4 µM) | 128 (≈ 241 µM) | 64 (≈ 121 µM) |
| Clc1ccc(Cn2cc(COCc3c(-c4ccccc4)nc4sc5ccccc5n34)nn2)cc1Cl | 64 (≈ 123 µM) | 32 (≈ 61.5 µM) | 64 (≈ 123 µM) | 8 (≈ 15.4 µM) | 64 (≈ 123 µM) | 64 (≈ 123 µM) | 32 (≈ 61.5 µM) | 16 (≈ 30.7 µM) | 64 (≈ 123 µM) | 16 (≈ 30.7 µM) | 64 (≈ 123 µM) | 32 (≈ 61.5 µM) | 32 (≈ 61.5 µM) | 256 (≈ 492 µM) | 16 (≈ 30.7 µM) |
